Reference: PubChem BioAssay (NCI)
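Each compound was tested at five concentrations against cells in 96-well plates for 48 hours. GI50 is the concentration that inhibits growth by half. TGI is the concentration that stops growth completely.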

Columns and labels:
Assay in all cases: NCI tumour cell line growth inhibition, 48 h
A498 renal = test system: A498 renal
MOLT-4 leukemia = test system: MOLT-4 leukemia
OVCAR-8 ovarian = test system: OVCAR-8 ovarian
MDA-MB-231 breast = test system: MDA-MB-231 breast
KM12 colon = test system: KM12 colon
OVCAR-3 ovarian = test system: OVCAR-3 ovarian
HS 578T breast = test system: HS 578T breast
MCF7 breast = test system: MCF7 breast
NCI-H23 lung = test system: NCI-H23 lung
UO-31 renal = test system: UO-31 renal
HCT-116 colon = test system: HCT-116 colon
HT29 colon = test system: HT29 colon
SNB-75 CNS = test system: SNB-75 CNS
OVCAR-5 ovarian = test system: OVCAR-5 ovarian
SW-620 colon = test system: SW-620 colon
NCI/ADR-RES ovarian = test system: NCI/ADR-RES ovarian
HL-60(TB) leukemia = test system: HL-60(TB) leukemia
HCT-15 colon = test system: HCT-15 colon
NCI-H522 lung = test system: NCI-H522 lung
M14 melanoma = test system: M14 melanoma
SF-268 CNS = test system: SF-268 CNS
IGROV1 ovarian = test system: IGROV1 ovarian
MDA-MB-435 = test system: MDA-MB-435
MALME-3M melanoma = test system: MALME-3M melanoma
RXF 393 renal = test system: RXF 393 renal
CAKI-1 renal = test system: CAKI-1 renal
SN12C renal = test system: SN12C renal
OVCAR-4 ovarian = test system: OVCAR-4 ovarian
RPMI-8226 leukemia = test system: RPMI-8226 leukemia
U251 CNS = test system: U251 CNS
SR leukemia = test system: SR leukemia
LOX IMVI melanoma = test system: LOX IMVI melanoma
NCI-H460 lung = test system: NCI-H460 lung
MDA-N = test system: MDA-N
COLO 205 colon = test system: COLO 205 colon
HOP-92 NSCLC = test system: HOP-92 NSCLC
EKVX NSCLC = test system: EKVX NSCLC
NCI-H226 lung = test system: NCI-H226 lung
SF-295 CNS = test system: SF-295 CNS
K-562 leukemia = test system: K-562 leukemia
T-47D breast = test system: T-47D breast
ACHN renal = test system: ACHN renal
UACC-257 melanoma = test system: UACC-257 melanoma
SK-MEL-28 melanoma = test system: SK-MEL-28 melanoma
CCRF-CEM leukemia = test system: CCRF-CEM leukemia
786-0 renal = test system: 786-0 renal
PC-3 prostate = test system: PC-3 prostate
A549 NSCLC = test system: A549 NSCLC
HOP-62 NSCLC = test system: HOP-62 NSCLC
SF-539 CNS = test system: SF-539 CNS
DU-145 prostate = test system: DU-145 prostate
HCC-2998 colon = test system: HCC-2998 colon
SK-MEL-5 melanoma = test system: SK-MEL-5 melanoma
BT-549 breast = test system: BT-549 breast
SK-OV-3 ovarian = test system: SK-OV-3 ovarian
SNB-19 CNS = test system: SNB-19 CNS
SK-MEL-2 melanoma = test system: SK-MEL-2 melanoma
UACC-62 melanoma = test system: UACC-62 melanoma
TK-10 renal = test system: TK-10 renal

## O=C1CC(CC(O)C(O)C(O)CO)CC(=O)N1 (stereo not given)
A498 renal
  TGI: > 100 µM
MOLT-4 leukemia
  TGI: > 100 µM
OVCAR-8 ovarian
  TGI: > 100 µM
MDA-MB-231 breast
  TGI: > 100 µM
KM12 colon
  TGI: > 100 µM
OVCAR-3 ovarian
  TGI: > 100 µM
HS 578T breast
  TGI: > 100 µM
MCF7 breast
  TGI: > 100 µM
NCI-H23 lung
  TGI: > 100 µM
UO-31 renal
  TGI: > 100 µM
HCT-116 colon
  TGI: > 100 µM
HT29 colon
  TGI: > 100 µM
SNB-75 CNS
  TGI: > 100 µM
OVCAR-5 ovarian
  TGI: > 100 µM
SW-620 colon
  TGI: > 100 µM
NCI/ADR-RES ovarian
  TGI: > 100 µM
HL-60(TB) leukemia
  TGI: > 100 µM
HCT-15 colon
  TGI: > 100 µM
NCI-H522 lung
  TGI: > 100 µM
M14 melanoma
  TGI: > 100 µM
SF-268 CNS
  TGI: > 100 µM
IGROV1 ovarian
  TGI: > 100 µM
MDA-MB-435
  TGI: > 100 µM
MALME-3M melanoma
  TGI: > 100 µM
RXF 393 renal
  TGI: > 100 µM
CAKI-1 renal
  TGI: > 100 µM
SN12C renal
  TGI: > 100 µM
OVCAR-4 ovarian
  TGI: > 100 µM
RPMI-8226 leukemia
  TGI: > 100 µM
U251 CNS
  TGI: > 100 µM
SR leukemia
  TGI: > 100 µM
LOX IMVI melanoma
  TGI: > 100 µM
NCI-H460 lung
  TGI: > 100 µM
MDA-N
  TGI: > 100 µM
COLO 205 colon
  TGI: > 100 µM
HOP-92 NSCLC
  TGI: > 100 µM
EKVX NSCLC
  TGI: > 100 µM
NCI-H226 lung
  TGI: > 100 µM
SF-295 CNS
  TGI: > 100 µM
K-562 leukemia
  TGI: > 100 µM
T-47D breast
  TGI: > 100 µM
ACHN renal
  TGI: > 100 µM
UACC-257 melanoma
  TGI: > 100 µM
SK-MEL-28 melanoma
  TGI: > 100 µM
CCRF-CEM leukemia
  TGI: > 100 µM
786-0 renal
  TGI: > 100 µM
PC-3 prostate
  TGI: > 100 µM
A549 NSCLC
  TGI: > 100 µM
HOP-62 NSCLC
  TGI: > 100 µM
SF-539 CNS
  TGI: > 100 µM
DU-145 prostate
  TGI: > 100 µM
HCC-2998 colon
  TGI: > 100 µM
SK-MEL-5 melanoma
  TGI: > 100 µM
BT-549 breast
  TGI: > 100 µM

## O=c1cc(-c2ccc(Cl)cc2)[nH]c2ncccc12
A498 renal
  TGI: > 100 µM
MOLT-4 leukemia
  TGI: > 100 µM
OVCAR-8 ovarian
  TGI: > 100 µM
MDA-MB-231 breast
  TGI: > 100 µM
KM12 colon
  TGI: > 100 µM
OVCAR-3 ovarian
  GI50: 23.4 µM
  TGI: 73.8 µM
HS 578T breast
  TGI: > 100 µM
MCF7 breast
  TGI: > 100 µM
NCI-H23 lung
  TGI: > 100 µM
UO-31 renal
  TGI: > 100 µM
HCT-116 colon
  GI50: 32.1 µM
  TGI: > 100 µM
HT29 colon
  TGI: > 100 µM
SK-OV-3 ovarian
  TGI: > 100 µM
SNB-75 CNS
  TGI: > 100 µM
OVCAR-5 ovarian
  TGI: > 100 µM
SW-620 colon
  TGI: > 100 µM
NCI/ADR-RES ovarian
  TGI: > 100 µM
HL-60(TB) leukemia
  GI50: 16.6 µM
  TGI: 41.6 µM
HCT-15 colon
  TGI: > 100 µM
NCI-H522 lung
  TGI: > 100 µM
M14 melanoma
  TGI: > 100 µM
SF-268 CNS
  TGI: > 100 µM
IGROV1 ovarian
  TGI: > 100 µM
MDA-MB-435
  GI50: 5.96 µM
  TGI: 22.4 µM
MALME-3M melanoma
  TGI: > 100 µM
CAKI-1 renal
  TGI: > 100 µM
SN12C renal
  TGI: > 100 µM
OVCAR-4 ovarian
  TGI: > 100 µM
RPMI-8226 leukemia
  TGI: 95 µM
U251 CNS
  TGI: > 100 µM
SR leukemia
  TGI: 37.5 µM
LOX IMVI melanoma
  TGI: > 100 µM
NCI-H460 lung
  GI50: 37.9 µM
  TGI: > 100 µM
MDA-N
  GI50: 8.26 µM
  TGI: 26.1 µM
COLO 205 colon
  TGI: 83 µM
SNB-19 CNS
  TGI: > 100 µM
HOP-92 NSCLC
  TGI: > 100 µM
EKVX NSCLC
  TGI: > 100 µM
NCI-H226 lung
  TGI: > 100 µM
SF-295 CNS
  GI50: 40.7 µM
  TGI: > 100 µM
K-562 leukemia
  TGI: 76.1 µM
T-47D breast
  TGI: > 100 µM
SK-MEL-2 melanoma
  TGI: > 100 µM
ACHN renal
  TGI: > 100 µM
UACC-257 melanoma
  TGI: > 100 µM
SK-MEL-28 melanoma
  TGI: > 100 µM
CCRF-CEM leukemia
  TGI: > 100 µM
786-0 renal
  GI50: 34.1 µM
  TGI: > 100 µM
PC-3 prostate
  GI50: 47.6 µM
  TGI: > 100 µM
A549 NSCLC
  TGI: > 100 µM
HOP-62 NSCLC
  TGI: > 100 µM
SF-539 CNS
  TGI: > 100 µM
UACC-62 melanoma
  TGI: > 100 µM
DU-145 prostate
  TGI: > 100 µM
TK-10 renal
  TGI: > 100 µM
HCC-2998 colon
  TGI: > 100 µM
SK-MEL-5 melanoma
  GI50: 29 µM
  TGI: > 100 µM
BT-549 breast
  TGI: > 100 µM

## O=C(O)CC(Nc1ccccc1)C(=O)O (stereo not given)
A498 renal
  TGI: > 100 µM
MOLT-4 leukemia
  TGI: > 100 µM
OVCAR-8 ovarian
  TGI: > 100 µM
MDA-MB-231 breast
  TGI: > 100 µM
KM12 colon
  TGI: > 100 µM
OVCAR-3 ovarian
  TGI: > 100 µM
HS 578T breast
  TGI: > 100 µM
MCF7 breast
  TGI: > 100 µM
NCI-H23 lung
  TGI: > 100 µM
UO-31 renal
  TGI: > 100 µM
HCT-116 colon
  TGI: > 100 µM
HT29 colon
  TGI: > 100 µM
SK-OV-3 ovarian
  TGI: > 100 µM
SNB-75 CNS
  TGI: > 100 µM
OVCAR-5 ovarian
  TGI: > 100 µM
SW-620 colon
  TGI: > 100 µM
NCI/ADR-RES ovarian
  TGI: > 100 µM
HL-60(TB) leukemia
  TGI: > 100 µM
HCT-15 colon
  TGI: > 100 µM
NCI-H522 lung
  TGI: > 100 µM
M14 melanoma
  TGI: > 100 µM
SF-268 CNS
  TGI: > 100 µM
IGROV1 ovarian
  TGI: > 100 µM
MDA-MB-435
  TGI: > 100 µM
MALME-3M melanoma
  TGI: > 100 µM
RXF 393 renal
  TGI: > 100 µM
CAKI-1 renal
  TGI: > 100 µM
SN12C renal
  TGI: > 100 µM
OVCAR-4 ovarian
  TGI: > 100 µM
RPMI-8226 leukemia
  TGI: > 100 µM
U251 CNS
  TGI: > 100 µM
SR leukemia
  TGI: > 100 µM
LOX IMVI melanoma
  TGI: > 100 µM
NCI-H460 lung
  TGI: > 100 µM
MDA-N
  TGI: > 100 µM
COLO 205 colon
  TGI: > 100 µM
SNB-19 CNS
  TGI: > 100 µM
HOP-92 NSCLC
  TGI: > 100 µM
EKVX NSCLC
  TGI: > 100 µM
NCI-H226 lung
  TGI: > 100 µM
SF-295 CNS
  TGI: > 100 µM
K-562 leukemia
  TGI: > 100 µM
T-47D breast
  TGI: > 100 µM
SK-MEL-2 melanoma
  TGI: > 100 µM
ACHN renal
  TGI: > 100 µM
UACC-257 melanoma
  TGI: > 100 µM
SK-MEL-28 melanoma
  TGI: > 100 µM
CCRF-CEM leukemia
  TGI: > 100 µM
786-0 renal
  TGI: > 100 µM
PC-3 prostate
  TGI: > 100 µM
A549 NSCLC
  TGI: > 100 µM
HOP-62 NSCLC
  TGI: > 100 µM
SF-539 CNS
  TGI: > 100 µM
UACC-62 melanoma
  TGI: > 100 µM
DU-145 prostate
  TGI: > 100 µM
TK-10 renal
  TGI: > 100 µM
SK-MEL-5 melanoma
  TGI: > 100 µM
BT-549 breast
  TGI: > 100 µM
